Each structure is given as a SMILES string. Where a name gives a salt, the structure may show the parent alone. Read-outs that look alike come from different tables or passages of the source. Some results are limits rather than exact numbers.

The target of one assay is CK1α (Homo sapiens, UniProt P48729+Q96SW2). Put plainly: CK1α degradation, flow cytometry in MV4-11 cells. The class given is cell-based. Also noted: CK1α levels were determined in MV-4-11 cells using Jess (Protein Simple); host or cells: MV-4-11. The note with it: % reduction of CK1α compared to DMSO, MV4-11 cells at 316 nM for 16 hours, read-out: CK1α degradation classification. As for the experimental part:
MV-4-11 cells were obtained from ATCC and grown in IMDM supplemented with 10% FBS. The cells were maintained at 37° C. under 5% CO2.
Compounds of the present disclosure were added to cells (final DMSO concentration of 0.5%) and incubated for 16 hours. CK1α level was determined in MV4-11 cells using flow cytometry (Luminex, Guava EasyCyte Plus). Briefly, cells were prepared with sequential 10% formalin and 70% methanol fixation. […] GuavaSoft Incyte software was used to analyse the flow cytometry data. Protein levels relative to DMSO are calculated for CK1α.
The efficacy of CK1α degradation of other part of compounds of the present disclosure was determined by treating MV4-11 cells at […] (Final DMSO concentration of 0.5%) for 16 hours. Protein levels relative to DMSO are calculated for CK1α.
Protein levels relative to DMSO are calculated for CK1α.
On the technique in general: In flow cytometry, cells or beads pass a laser one at a time.

Another assay deals with MV-4-11 cells. In words: AML cell viability assay (RealTime-Glo). The note with it: Homo sapiens, read-out: Cell viability classification. The class given is cell-based.
Where [1] appears, read: MV4-11, IC50 class, MV-4-11 cells, RealTime-Glo after 44 hrs of treatment (TABLE 3).
Setting [2] is: MV4-11, IC50 class, MV-4-11 cells, RealTime-Glo after 44 hrs of treatment (TABLE 5).

Sequence of CK1α (P48729 whole entry): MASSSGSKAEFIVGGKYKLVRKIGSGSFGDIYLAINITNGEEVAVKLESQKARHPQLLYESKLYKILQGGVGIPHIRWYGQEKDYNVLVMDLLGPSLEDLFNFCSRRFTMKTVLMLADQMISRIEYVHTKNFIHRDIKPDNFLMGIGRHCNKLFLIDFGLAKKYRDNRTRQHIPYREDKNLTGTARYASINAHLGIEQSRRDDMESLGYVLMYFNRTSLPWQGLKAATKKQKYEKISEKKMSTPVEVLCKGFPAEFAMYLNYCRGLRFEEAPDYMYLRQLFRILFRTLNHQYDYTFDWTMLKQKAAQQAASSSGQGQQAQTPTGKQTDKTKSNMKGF
Sequence of CK1α (Q96SW2 whole entry): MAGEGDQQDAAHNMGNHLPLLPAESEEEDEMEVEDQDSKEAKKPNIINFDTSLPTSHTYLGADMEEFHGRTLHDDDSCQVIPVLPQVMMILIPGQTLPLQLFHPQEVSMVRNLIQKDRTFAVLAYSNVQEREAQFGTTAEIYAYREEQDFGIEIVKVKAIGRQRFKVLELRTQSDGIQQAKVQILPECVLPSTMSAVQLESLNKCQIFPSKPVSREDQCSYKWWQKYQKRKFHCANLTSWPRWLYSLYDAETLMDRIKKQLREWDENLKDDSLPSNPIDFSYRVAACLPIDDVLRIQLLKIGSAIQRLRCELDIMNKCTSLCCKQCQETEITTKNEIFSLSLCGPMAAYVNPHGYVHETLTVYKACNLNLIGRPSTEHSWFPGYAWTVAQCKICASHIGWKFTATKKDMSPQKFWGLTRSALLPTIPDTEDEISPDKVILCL
Sequence of CK1α (Q16531 whole entry partner): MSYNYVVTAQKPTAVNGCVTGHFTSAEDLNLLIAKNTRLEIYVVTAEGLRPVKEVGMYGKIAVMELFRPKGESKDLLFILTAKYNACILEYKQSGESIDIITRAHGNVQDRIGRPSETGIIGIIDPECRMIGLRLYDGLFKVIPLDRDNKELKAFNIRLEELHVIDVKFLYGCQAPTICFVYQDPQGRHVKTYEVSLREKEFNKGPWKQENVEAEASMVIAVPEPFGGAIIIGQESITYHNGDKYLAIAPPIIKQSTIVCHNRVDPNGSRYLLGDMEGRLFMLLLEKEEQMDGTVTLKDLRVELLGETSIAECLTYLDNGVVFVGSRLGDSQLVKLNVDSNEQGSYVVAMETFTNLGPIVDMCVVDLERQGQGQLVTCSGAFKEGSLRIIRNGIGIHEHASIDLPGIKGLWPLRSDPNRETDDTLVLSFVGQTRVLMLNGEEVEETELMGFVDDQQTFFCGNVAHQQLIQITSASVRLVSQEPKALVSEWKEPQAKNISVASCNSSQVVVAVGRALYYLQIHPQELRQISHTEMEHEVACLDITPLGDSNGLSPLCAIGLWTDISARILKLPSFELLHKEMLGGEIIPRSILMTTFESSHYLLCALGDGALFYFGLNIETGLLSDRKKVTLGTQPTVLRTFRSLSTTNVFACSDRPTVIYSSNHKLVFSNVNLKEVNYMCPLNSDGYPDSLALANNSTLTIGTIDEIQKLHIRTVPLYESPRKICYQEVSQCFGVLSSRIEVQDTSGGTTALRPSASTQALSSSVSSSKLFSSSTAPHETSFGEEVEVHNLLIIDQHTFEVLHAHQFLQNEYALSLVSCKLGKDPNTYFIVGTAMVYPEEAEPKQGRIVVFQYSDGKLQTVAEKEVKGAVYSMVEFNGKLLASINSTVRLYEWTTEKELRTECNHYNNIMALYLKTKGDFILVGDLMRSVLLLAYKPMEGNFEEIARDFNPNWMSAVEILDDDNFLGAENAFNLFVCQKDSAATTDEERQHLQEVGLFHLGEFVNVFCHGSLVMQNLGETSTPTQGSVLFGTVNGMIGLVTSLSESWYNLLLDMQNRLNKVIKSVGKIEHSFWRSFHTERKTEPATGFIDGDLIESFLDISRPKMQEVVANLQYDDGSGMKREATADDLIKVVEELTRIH

Take `C/C=C/CCN(CCCCN)c1cccc2c1CN(C1CCC(=O)NC1=O)C2=O` (centres unmarked) [Compound 93, (E)-3-(4-((4-aminobutyl)(pent-3-en-1-yl)amino)-1-oxoisoindolin-2-yl)piperidine-2,6-dione hydrochloride]: the Dmax at 0.316 µM on CK1α was above 75%. In addition, in the assay with MV-4-11 cells (setting [1]), the IC50 was below 100 nM. In the case of `C/C=C\CCN(CCCCN)c1cccc2c1CN(C1CCC(=O)NC1=O)C2=O` (centres unmarked) [Compound 94, (Z)-3-(4-((4-aminobutyl)(pent-3-en-1-yl)amino)-1-oxoisoindolin-2-yl)piperidine-2,6-dione], the Dmax at 0.316 µM at CK1α was above 75%. Further, the IC50 in the assay on MV-4-11 cells (setting [1]) was below 100 nM. For `CC#CCCN(CCCCN)c1cccc2c1CN(C1CCC(=O)NC1=O)C2=O` (centres unmarked) [Compound 95, 3-(4-((4-aminobutyl)(pent-3-yn-1-yl)amino)-1-oxoisoindolin-2-yl)piperidine-2,6-dione, HCl], the Dmax at 0.316 µM on CK1α is below 50%. In addition, in the assay with MV-4-11 cells (setting [1]), the IC50 is 100 to 1000 nM. For `CCCCCN(CCCCNCCCC)c1cccc2c1CN(C1CCC(=O)NC1=O)C2=O` (centres unmarked) [Compound 166, 3-(4-((4-(butylamino)butyl)(pentyl)amino)-1-oxoisoindolin-2-yl)piperidine-2,6-dione, HCl], on CK1α, the Dmax at 0.316 µM is above 75%. In the assay on MV-4-11 cells (MV4-11, 44 h), the IC50 was in the range of 100 to 1000 nM. Consider `CCCCCN(CCCCNCCC(C)C)c1cccc2c1CN(C1CCC(=O)NC1=O)C2=O` (centres unmarked) [Compound 167, 3-(4-((4-(isopentylamino)butyl)(pentyl)amino)-1-oxoisoindolin-2-yl)piperidine-2,6-dione. HCl], for which the Dmax at 0.316 µM on CK1α was above 75%. For the same molecule, the IC50 with MV-4-11 cells (setting [1]) lay in the range of 100 to 1000 nM. On to `CCCCCN(c1cccc2c1CN(C1CCC(=O)NC1=O)C2=O)[C@H]1CC[C@H](NC(C)=O)CC1` (some centres unmarked) [Compound 168, N-((1r,4r)-4-((2-(2,6-dioxopiperidin-3-yl)-1-oxoisoindolin-4-yl)(pentyl)amino)cyclohexyl)acetamide], for which the Dmax at 0.316 µM on CK1α is above 75%. The IC50 in the assay with MV-4-11 cells (setting [1]) was in the range of 100 to 1000 nM. As to `CCCCCN(c1cccc2c1CN(C1CCC(=O)NC1=O)C2=O)[C@H]1CC[C@H](NC)CC1` (stereo partly drawn) [Compound 169, 3-(4-(((1R,4R)-4-(methylamino)cyclohexyl)(pentyl)amino)-1-oxoisoindolin-2-yl)piperidine-2,6-dione hydrochloride], the Dmax at 0.316 µM on CK1α is above 75%. Besides, in the assay on MV-4-11 cells (MV4-11, 44 h), the IC50 is below 100 nM. As to `CC(C)(C)CCN(CCCCN)c1cccc2c1CN(C1CCC(=O)NC1=O)C2=O` (centres unmarked) [Compound 223, 3-(4-((4-aminobutyl)(3,3-dimethylbutyl)amino)-1-oxoisoindolin-2-yl)piperidine-2,6-dione], the Dmax at 0.316 µM on CK1α was above 75%. Further, in the assay on MV-4-11 cells (setting [1]), the IC50 was below 100 nM.

On to `N[C@H]1CC[C@H](N(CC2CC2)c2cccc3c2CN(C2CCC(=O)NC2=O)C3=O)CC1` (some centres unmarked) [Compound 235, 3-(4-(((1r,4r)-4-aminocyclohexyl)(cyclopropylmethyl)amino)-1-oxoisoindolin-2-yl)piperidine-2,6-dione hydrochloride], for which, at CK1α, the Dmax at 0.316 µM was above 75%. The IC50 in the assay on MV-4-11 cells (setting [1]) was below 100 nM. On the same counts, the results for `CC(C)CN(c1cccc2c1CN(C1CCC(=O)NC1=O)C2=O)[C@H]1CC[C@H](N)CC1` (some centres unmarked) [Compound 236, 3-(4-(((1r,4r)-4-aminocyclohexyl)(isobutyl)amino)-1-oxoisoindolin-2-yl)piperidine-2,6-dione. HCl] are above 75% and 100 to 1000 nM.

As to `N[C@H]1CC[C@H](N(CCC2CC2)c2cccc3c2CN(C2CCC(=O)NC2=O)C3=O)CC1` (some centres unmarked) [Compound 237, 3-(4-(((1r,4r)-4-aminocyclohexyl)(2-cyclopropylethyl)amino)-1-oxoisoindolin-2-yl)piperidine-2,6-dione, HCl], the Dmax at 0.316 µM at CK1α was above 75%. Moreover, the IC50 in the assay on MV-4-11 cells (setting [1]) was below 100 nM. As for `CC(C)CCN(c1cccc2c1CN(C1CCC(=O)NC1=O)C2=O)[C@H]1CC[C@H](N)CC1` (some centres unmarked) [Compound 238, 3-(4-(((1r,4r)-4-aminocyclohexyl)(isopentyl)amino)-1-oxoisoindolin-2-yl)piperidine-2,6-dione hydrochloride], the Dmax at 0.316 µM on CK1α was above 75%. In addition, the IC50 in the assay with MV-4-11 cells (setting [1]) was below 100 nM.

Turning to `N[C@H]1CC[C@H](N(CCC2CCNCC2)c2cccc3c2CN(C2CCC(=O)NC2=O)C3=O)CC1` (some centres unmarked) [Compound 239, 3-(4-(((1r,4r)-4-aminocyclohexyl) (2-(piperidin-4-yl)ethyl)amino)-1-oxoisoindolin-2-yl) piperidine-2,6-dione, 2HCl], the Dmax at 0.316 µM at CK1α is below 50%. Further, the IC50 in the assay with MV-4-11 cells (setting [1]) was above 1000 nM. Take `N[C@H]1CC[C@H](N(CCC2CCOCC2)c2cccc3c2CN(C2CCC(=O)NC2=O)C3=O)CC1` (some centres unmarked) [Compound 240, 3-(4-(((1r,4r)-4-aminocyclohexyl)(2-(tetrahydro-2H-pyran-4-yl)ethyl)amino)-1-oxoisoindolin-2-yl)piperidine-2,6-dione hydrochloride]: on CK1α, the Dmax at 0.316 µM was below 50%. In addition, in the assay on MV-4-11 cells (setting [1]), the IC50 was in the range of 100 to 1000 nM.

For `N[C@H]1CC[C@H](N(CCCC2CCNCC2)c2cccc3c2CN(C2CCC(=O)NC2=O)C3=O)CC1` (some centres unmarked) [Compound 241, 3-(4-(((1r,4r)-4-aminocyclohexyl)(3-(piperidin-4-yl)propyl)amino)-1-oxoisoindolin-2-yl)piperidine-2,6-dione, 2HCl], on CK1α, the Dmax at 0.316 µM is below 50%. Further, the IC50 in the assay with MV-4-11 cells (setting [1]) is above 1000 nM. Consider `N[C@H]1CC[C@H](N(CCCC2CCOCC2)c2cccc3c2CN(C2CCC(=O)NC2=O)C3=O)CC1` (some centres unmarked) [Compound 242, 3-(4-(((1r,4r)-4-aminocyclohexyl)(3-(tetrahydro-2H-pyran-4-yl)propyl)amino)-1-oxoisoindolin-2-yl)piperidine-2,6-dione hydrochloride], for which, at CK1α, the Dmax at 0.316 µM was above 75%. Moreover, in the assay on MV-4-11 cells (setting [1]), the IC50 is below 100 nM. On to `N[C@H]1CC[C@H](N(CCN2CCNCC2)c2cccc3c2CN(C2CCC(=O)NC2=O)C3=O)CC1` (some centres unmarked) [Compound 243, 3-(4-(((1r,4r)-4-aminocyclohexyl)(2-(piperazin-1-yl)ethyl)amino)-1-oxoisoindolin-2-yl)piperidine-2,6-dione, 3HCl], for which the Dmax at 0.316 µM on CK1α was below 50%. Moreover, the IC50 in the assay on MV-4-11 cells (setting [1]) is above 1000 nM.

Regarding `N[C@H]1CC[C@H](N(CCN2CCOCC2)c2cccc3c2CN(C2CCC(=O)NC2=O)C3=O)CC1` (some centres unmarked) [Compound 244, 3-(4-(((1r,4r)-4-aminocyclohexyl)(2-morpholinoethyl)amino)-1-oxoisoindolin-2-yl)piperidine-2,6-dione, 2HCl], the Dmax at 0.316 µM at CK1α was below 50%. The IC50 with MV-4-11 cells (setting [1]) was above 1000 nM. As for `N[C@H]1CC[C@H](N(CCCN2CCNCC2)c2cccc3c2CN(C2CCC(=O)NC2=O)C3=O)CC1` (some centres unmarked) [Compound 245, 3-(4-(((1r,4r)-4-aminocyclohexyl)(3-(piperazin-1-yl)propyl)amino)-1-oxoisoindolin-2-yl)piperidine-2,6-dione, 3HCl], on CK1α, the Dmax at 0.316 µM is below 50%. The IC50 with MV-4-11 cells (setting [1]) was above 1000 nM. Take `O=C1CCC(N2Cc3c(cccc3N(CCC3CC3)[C@H]3CC[C@H](N4CC[C@H](C(F)(F)F)C4)CC3)C2=O)C(=O)N1` (stereo partly drawn) [Compound 712, 3-(4-((2-cyclopropylethyl)((1S,4r)-4-((S)-3-(trifluoromethyl)pyrrolidin-1-yl)cyclohexyl)amino)-1-oxoisoindolin-2-yl)piperidine-2,6-dione 2,2,2-trifluoroacetate]: the IC50 with MV-4-11 cells (setting [2]) was in the range of 100 to 1000 nM.

As for `O=C1CCC(N2Cc3c(cccc3N(CCC3CC3)[C@H]3CC[C@@H](N4CC[C@H](C(F)(F)F)C4)CC3)C2=O)C(=O)N1` (stereo partly drawn) [Compound 712A, 3-(4-((2-cyclopropylethyl)((1R,4s)-4-((S)-3-(trifluoromethyl)pyrrolidin-1-yl)cyclohexyl)amino)-1-oxoisoindolin-2-yl)piperidine-2,6-dione 2,2,2-trifluoroacetate], in the assay with MV-4-11 cells (setting [2]), the IC50 is above 1000 nM. Turning to `O=C1CCC(N2Cc3c(cccc3N(CCC3CC3)[C@H]3CC[C@H](N4CC[C@@H](C(F)(F)F)C4)CC3)C2=O)C(=O)N1` (stereo partly drawn) [Compound 713, 3-(4-((2-cyclopropylethyl)((1R,4r)-4-((R)-3-(trifluoromethyl)pyrrolidin-1-yl)cyclohexyl)amino)-1-oxoisoindolin-2-yl)piperidine-2,6-dione bis(2,2,2-trifluoroacetate)], in the assay on MV-4-11 cells (setting [2]), the IC50 lay in the range of 100 to 1000 nM.

On to `O=C1CCC(N2Cc3c(cccc3N(CCC3CC3)[C@H]3CC[C@@H](N4CC[C@@H](C(F)(F)F)C4)CC3)C2=O)C(=O)N1` (stereo partly drawn) [Compound 713A, 3-(4-((2-cyclopropylethyl)((1S,4s)-4-((R)-3-(trifluoromethyl)pyrrolidin-1-yl)cyclohexyl)amino)-1-oxoisoindolin-2-yl)piperidine-2,6-dione bis(2,2,2-trifluoroacetate)], for which, in the assay with MV-4-11 cells (setting [2]), the IC50 is above 1000 nM. With `CN1CCC(CN(CCC2CC2)c2cccc3c2CN(C2CCC(=O)NC2=O)C3=O)CC1` (centres unmarked) [Compound 714, 3-(4-((2-cyclopropylethyl)((1-methylpiperidin-4-yl)methyl)amino)-1-oxoisoindolin-2-yl)piperidine-2,6-dione], the IC50 in the assay on MV-4-11 cells (setting [2]) was above 1000 nM. The same measure, in the same setting: for `O=C1CCC(N2Cc3c(cccc3N(CCC3CC3)[C@H]3CC[C@@H](N4CCC(F)(F)CC4)CC3)C2=O)C(=O)N1` (some centres unmarked) [Compound 716A, 3-(4-((2-cyclopropylethyl)((1s,4s)-4-(4,4-difluoropiperidin-1-yl)cyclohexyl)amino)-1-oxoisoindolin-2-yl)piperidine-2,6-dione tris(2,2,2-trifluoroacetate)] the value was above 1000 nM.

(Values after patent US20250188069A1, “COMPOUNDS AND METHODS FOR DEGRADING CASEIN KINASE 1 ALPHA” (PIN THERAPEUTICS, INC., priority 2022, published 2025).)
